Values of other authors as cited in article PMC10323144, “Garbage in, garbage out: how reliable training data improved a virtual screening approach against SARS-CoV-2 MPro” (Frontiers in Pharmacology, 2023).
Where a name gives a salt, the structure may show the parent alone.

Test system: MPro
Conditions: compiled from peer-reviewed sources (287 compounds) ref the 18 original articles; cited from earlier work

Question: For `Cc1c(O)cccc1C(=O)N[C@@H](CSc1ccccc1)[C@H](O)CN1C[C@H]2CCCC[C@H]2C[C@H]1C(=O)NC(C)(C)C` [Nelfinavir], which “Class (MPro activity class)” value is on record?
Answer: The value was 0 (compounds with IC50 > 20 μM, percentage inhibition <80% at 20 µM or 50 μM, or percentage enzyme inhibition <50% at 10 µM were labelled as INACTIVE).

Question: Which “Class (MPro activity class)” value does the source give for `CCCOc1cc(Cl)cc(-c2cc(-c3c[nH]c(=O)[nH]c3=O)cn(-c3cccnc3)c2=O)c1` [compound 11] here?
Answer: The value was 1 (Compounds with IC50 < 10 µM or with a percentage of enzyme inhibition >50% at 10 µM were labelled as ACTIVE).

Question: For `Cc1nnc(C(=O)NC(C)(C)c2nc(C(=O)NCc3ccc(F)cc3)c(O)c(=O)n2C)o1` [Raltegravir], which “Class (MPro activity class)” value is on record?
Answer: The value was 0 (compounds with IC50 > 20 μM, percentage inhibition <80% at 20 µM or 50 μM, or percentage enzyme inhibition <50% at 10 µM were labelled as INACTIVE).

Question: With `CC(C)(C#N)c1cc(Cn2cncn2)cc(C(C)(C)C#N)c1` [Anastrozole] as the compound, how does the “Class (MPro activity class)” value read?
Answer: The value was 0 (compounds with IC50 > 20 μM, percentage inhibition <80% at 20 µM or 50 μM, or percentage enzyme inhibition <50% at 10 µM were labelled as INACTIVE).

Question: With `CCCCOc1cc(Cl)cc(-c2cc(-c3c[nH]c(=O)[nH]c3=O)cn(-c3cccnc3)c2=O)c1` [compound 12] as the compound, how does the “Class (MPro activity class)” value read?
Answer: Its value is 1 (Compounds with IC50 < 10 µM or with a percentage of enzyme inhibition >50% at 10 µM were labelled as ACTIVE).

Question: With `CC(C)CC(NC(=O)OCc1ccccc1)C(=O)NC(CC(C)C)C(=O)NC(CC1CCNC1=O)C(=O)C(=O)NC1CC1` (stereo not drawn) [UAWJ248] as the compound, how does the “Class (MPro activity class)” value read?
Answer: The value was 1 (Compounds with IC50 < 10 µM or with a percentage of enzyme inhibition >50% at 10 µM were labelled as ACTIVE).

Question: Which “Class (MPro activity class)” value does the source give for `Cc1ccccc1COc1cc(Cl)cc(-c2cc(-c3c[nH]c(=O)[nH]c3=O)cn(-c3cccnc3)c2=O)c1` [compound 16] here?
Answer: Its value is 1 (Compounds with IC50 < 10 µM or with a percentage of enzyme inhibition >50% at 10 µM were labelled as ACTIVE).

Question: Which “Class (MPro activity class)” value does the source give for `CC(C)c1c(C(=O)Nc2ccccc2)c(-c2ccccc2)c(-c2ccc(F)cc2)n1CC[C@@H](O)C[C@@H](O)CC(=O)O` [Atorvastatin] here?
Answer: Its value is 0 (compounds with IC50 > 20 μM, percentage inhibition <80% at 20 µM or 50 μM, or percentage enzyme inhibition <50% at 10 µM were labelled as INACTIVE).

Question: Which “Class (MPro activity class)” value does the source give for `CC(C)(C)C#Cc1cc(N(C(=O)[C@H]2CC[C@H](C)CC2)[C@H]2CC[C@H](O)CC2)c(C(=O)O)s1` [Lomibuvir] here?
Answer: The value was 0 (compounds with IC50 > 20 μM, percentage inhibition <80% at 20 µM or 50 μM, or percentage enzyme inhibition <50% at 10 µM were labelled as INACTIVE).

Question: Which “Class (MPro activity class)” value does the source give for `C[C@@H]1O[C@@H](O[C@@H]2[C@@H](O)[C@H](OCCc3ccc(O)c(O)c3)O[C@H](CO)[C@H]2OC(=O)/C=C/c2ccc(O)c(O)c2)[C@H](O)[C@H](O)[C@H]1O` [Acteoside] here?
Answer: Its value is 0 (compounds with IC50 > 20 μM, percentage inhibition <80% at 20 µM or 50 μM, or percentage enzyme inhibition <50% at 10 µM were labelled as INACTIVE).

Question: With `O=C(CCl)N1CCN(C(c2ccccc2)C2CCCCC2)CC1` (stereo not drawn) [GIA-UNK-20b63697-6] as the compound, how does the “Class (MPro activity class)” value read?
Answer: The value was 1 (Compounds with IC50 < 10 µM or with a percentage of enzyme inhibition >50% at 10 µM were labelled as ACTIVE).

Question: For Phillyrin, which “Class (MPro activity class)” value is on record?
Answer: The value was 0 (compounds with IC50 > 20 μM, percentage inhibition <80% at 20 µM or 50 μM, or percentage enzyme inhibition <50% at 10 µM were labelled as INACTIVE).

Question: For `O=C(Cc1cccc(Cl)c1)Nn1cnc2ccccc21` [JAN-GHE-5a013bed-2], which “Class (MPro activity class)” value is on record?
Answer: The value was 1 (Compounds with IC50 < 10 µM or with a percentage of enzyme inhibition >50% at 10 µM were labelled as ACTIVE).

Question: With `CC/C(=C(\c1ccccc1)c1ccc(OCCN(C)C)cc1)c1ccccc1` [TAMOXIFEN CITRATE] as the compound, how does the “Class (MPro activity class)” value read?
Answer: Its value is 0 (compounds with IC50 > 20 μM, percentage inhibition <80% at 20 µM or 50 μM, or percentage enzyme inhibition <50% at 10 µM were labelled as INACTIVE).

Question: For `N#Cc1cc(CN2CCN(C(=O)CCl)CC2)c2ccccc2c1` [DAR-DIA-fb20be43-6], which “Class (MPro activity class)” value is on record?
Answer: Its value is 1 (Compounds with IC50 < 10 µM or with a percentage of enzyme inhibition >50% at 10 µM were labelled as ACTIVE).
